From patent US7998681B2, “Diagnosis and therapy of antibody-mediated inflammatory auto-immune disorders” (Los Angeles Biomedical Research Institute at Harbor-UCLA …, priority 2000, dated 2011) come the findings set out here.

The assay concerns RANTES. The assay is described as follows: RANTES ELISA of medium from treated fibroblasts, normal donors. Type of assay: cell-based, human. Conditions: limit of detection 15 pg/ml. From the text: In addition to its therapeutic aspects, the present invention also relates to a diagnostic method for detecting the presence of antibody-activated fibroblasts in the patient. Applicants believe that several auto immune diseases or disorders are associated with antibody-activated fibroblasts. Applicants have shown that increased activation of fibroblasts by auto-antibodies can be monitored by determining the levels of IL-16 and/or RANTES production in a patient. Altered levels of these chemoattractants can be detected in various biological samples in mammals, preferably humans. Levels of IL-16 and/or RANTES may be monitored in a patient, using standard techniques, as an indication of the deleterious aspects of the disease condition. Biological samples, including but not limited to serum, vitreous humor, aqueous humor, synovial fluid, and tissue, will be drawn from the patient using standard techniques. Particularly preferred are serum samples. The measurement of the IL-16 and RANTES levels may be monitored using any method possible to detect the levels of these proteins in biological samples. A preferred method of analysis is by ELISA as described in Sciaky, D. et al., J. Immunol. 164(7):3806-14, 2000. An ELISA specific for IL-16 can be used to assess the levels released by fibroblasts as described previously in Lim, K. G. et al., J. Immunol. 156(7): 2566-70, 1996. An ELISA specific for RANTES can be used according to the manufacturer's specification (BioSource Intl., Camarillo, Calif.).
The levels of IL-16 and RANTES were then assessed with specific ELISAs. The ELISA assay for IL-16 is performed essentially as discussed in Sciaky D., Brazer, W., Center, D. M., Cruikshank, W. W. and Smith, T. J.: Cultured human fibroblasts express constitutive IL-16 mRNA: Cytokine induction of active IL-16 protein synthesis through a caspase-3-dependent mechanism. J. Immunol. 164(7):3806-14, 2000). An ELISA (BioSource) for RANTES was performed according to the manufacturer's instructions. In an analysis of over a dozen strains, TAO specific IgG elicit substantial induction of IL-16 and RANTES and in no case were normal fibroblasts so affected.

For the substance “IL-1β: pro-inflammatory cytokine used to activate fibroblasts”, the “RANTES” value worked out at 42 ± 9 pg/mL (strain 12, Orbit); 79 ± 11 pg/mL (strain 14, Orbit); 173 ± 12 pg/mL (strain 15, Extremity Skin); 125 ± 9 pg/mL (strain 16, Extremity Skin).
